Test results taken from ChEMBL document CHEMBL2150974 (J Med Chem, 2012).
Activity calls are given as the source filed them. No cut-off for these calls is given here.

Legend:
[1] = target: T1, Mitogen-activated protein kinase 14 (Homo sapiens, UniProt Q16539); assay: Inhibition of p38alpha by immunosorbent based kinase assay
[2] = target: T1, Mitogen-activated protein kinase 14; assay: Inhibition of p38alpha-dependent TNFalpha production in human whole blood
[3] = target: RAC-alpha serine/threonine-protein kinase (Homo sapiens) (UniProt P31749); assay: Inhibition of AKT1 at 10 uM
[4] = target: T2, Serine/threonine-protein kinase PLK4 (Homo sapiens) (UniProt O00444); assay: Inhibition of SAK at 10 uM
T2 sequence (whole entry): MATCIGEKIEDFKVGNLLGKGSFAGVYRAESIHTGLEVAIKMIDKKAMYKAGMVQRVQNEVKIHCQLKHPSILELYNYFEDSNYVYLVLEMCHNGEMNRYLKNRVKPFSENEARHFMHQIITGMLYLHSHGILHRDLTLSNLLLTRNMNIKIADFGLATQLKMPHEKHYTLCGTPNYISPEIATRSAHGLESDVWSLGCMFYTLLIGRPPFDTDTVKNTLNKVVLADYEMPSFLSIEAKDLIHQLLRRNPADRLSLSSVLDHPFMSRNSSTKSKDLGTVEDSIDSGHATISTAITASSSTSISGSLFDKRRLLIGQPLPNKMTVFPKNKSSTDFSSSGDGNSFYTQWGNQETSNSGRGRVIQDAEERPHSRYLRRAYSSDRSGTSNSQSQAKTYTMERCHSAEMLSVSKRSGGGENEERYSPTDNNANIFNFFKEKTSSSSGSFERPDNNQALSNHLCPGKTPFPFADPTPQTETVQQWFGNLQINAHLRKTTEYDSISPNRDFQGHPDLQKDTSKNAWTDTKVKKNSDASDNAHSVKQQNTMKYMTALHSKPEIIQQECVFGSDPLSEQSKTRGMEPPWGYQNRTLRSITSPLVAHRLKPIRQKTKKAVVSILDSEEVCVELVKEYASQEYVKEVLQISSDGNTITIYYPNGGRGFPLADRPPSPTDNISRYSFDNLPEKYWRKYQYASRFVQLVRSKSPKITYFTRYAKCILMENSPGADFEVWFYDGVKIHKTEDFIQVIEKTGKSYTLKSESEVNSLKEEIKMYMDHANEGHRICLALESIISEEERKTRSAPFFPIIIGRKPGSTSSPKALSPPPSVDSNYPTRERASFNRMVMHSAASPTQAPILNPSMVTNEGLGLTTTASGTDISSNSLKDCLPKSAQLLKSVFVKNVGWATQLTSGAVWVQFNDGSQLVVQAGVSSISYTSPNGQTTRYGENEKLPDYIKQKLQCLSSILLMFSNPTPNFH

[5] = target: Tyrosine-protein kinase receptor UFO (Homo sapiens) (UniProt P30530); assay: Inhibition of AXL at 10 uM
[6] = target: Focal adhesion kinase 1 (Homo sapiens) (UniProt Q05397); assay: Inhibition of FAK at 10 uM
[7] = target: Casein kinase II subunit alpha (Homo sapiens) (UniProt P68400); assay: Inhibition of CK2alpha1 at 10 uM
[8] = target: Proto-oncogene tyrosine-protein kinase Src (Homo sapiens) (UniProt P12931); assay: Inhibition of SRC at 10 uM
[9] = target: Serine/threonine-protein kinase PLK1 (Homo sapiens) (UniProt P53350); assay: Inhibition of PLK1 at 10 uM
[10] = target: Aurora kinase B (Homo sapiens) (UniProt Q96GD4); assay: Inhibition of AuroraB at 10 uM
[11] = target: Hepatocyte growth factor receptor (Homo sapiens) (UniProt P08581); assay: Inhibition of MET at 10 uM
[12] = target: Vascular endothelial growth factor receptor 2 (Homo sapiens) (UniProt P35968); assay: Inhibition of VEGFR2 at 10 uM
[13] = target: T3, NUAK family SNF1-like kinase 1 (Homo sapiens) (UniProt O60285); assay: Inhibition of ARK5 at 10 uM
T3 sequence (whole entry): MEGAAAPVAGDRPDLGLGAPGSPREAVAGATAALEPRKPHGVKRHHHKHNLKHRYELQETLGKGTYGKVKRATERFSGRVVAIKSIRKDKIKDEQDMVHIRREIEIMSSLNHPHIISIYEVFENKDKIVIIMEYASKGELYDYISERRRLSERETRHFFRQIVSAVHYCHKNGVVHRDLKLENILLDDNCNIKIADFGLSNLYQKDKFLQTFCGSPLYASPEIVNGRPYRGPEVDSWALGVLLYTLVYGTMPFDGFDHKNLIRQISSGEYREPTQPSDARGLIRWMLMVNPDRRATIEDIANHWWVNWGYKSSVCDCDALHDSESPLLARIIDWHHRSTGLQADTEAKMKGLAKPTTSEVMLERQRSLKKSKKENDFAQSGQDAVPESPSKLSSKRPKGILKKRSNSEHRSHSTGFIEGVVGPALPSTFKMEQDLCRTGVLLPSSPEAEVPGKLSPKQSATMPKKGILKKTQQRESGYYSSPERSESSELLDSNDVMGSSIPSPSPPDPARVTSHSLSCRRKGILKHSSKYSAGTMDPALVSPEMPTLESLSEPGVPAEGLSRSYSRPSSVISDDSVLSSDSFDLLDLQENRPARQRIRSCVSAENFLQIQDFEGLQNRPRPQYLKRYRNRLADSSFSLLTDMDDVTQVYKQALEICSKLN

[14] = target: Insulin receptor (Homo sapiens) (UniProt P06213); assay: Inhibition of INSR at 10 uM
[15] = tested on: Serine/threonine-protein kinase B-raf (Homo sapiens), P15056 [V600E]; assay: Inhibition of BRAF V600E mutant at 10 uM
[16] = target: Serine/threonine-protein kinase N1 (Homo sapiens) (UniProt Q16512); assay: Inhibition of PRK1 at 10 uM
[17] = target: Insulin-like growth factor 1 receptor (Homo sapiens) (UniProt P08069); assay: Inhibition of IGF1R at 10 uM
[18] = target: BDNF/NT-3 growth factors receptor (Homo sapiens) (UniProt Q16620); assay: Inhibition of TRKB at 10 uM
Sequence of BDNF/NT-3 growth factors receptor (Homo sapiens) (Q16620 32-822 limits assumed): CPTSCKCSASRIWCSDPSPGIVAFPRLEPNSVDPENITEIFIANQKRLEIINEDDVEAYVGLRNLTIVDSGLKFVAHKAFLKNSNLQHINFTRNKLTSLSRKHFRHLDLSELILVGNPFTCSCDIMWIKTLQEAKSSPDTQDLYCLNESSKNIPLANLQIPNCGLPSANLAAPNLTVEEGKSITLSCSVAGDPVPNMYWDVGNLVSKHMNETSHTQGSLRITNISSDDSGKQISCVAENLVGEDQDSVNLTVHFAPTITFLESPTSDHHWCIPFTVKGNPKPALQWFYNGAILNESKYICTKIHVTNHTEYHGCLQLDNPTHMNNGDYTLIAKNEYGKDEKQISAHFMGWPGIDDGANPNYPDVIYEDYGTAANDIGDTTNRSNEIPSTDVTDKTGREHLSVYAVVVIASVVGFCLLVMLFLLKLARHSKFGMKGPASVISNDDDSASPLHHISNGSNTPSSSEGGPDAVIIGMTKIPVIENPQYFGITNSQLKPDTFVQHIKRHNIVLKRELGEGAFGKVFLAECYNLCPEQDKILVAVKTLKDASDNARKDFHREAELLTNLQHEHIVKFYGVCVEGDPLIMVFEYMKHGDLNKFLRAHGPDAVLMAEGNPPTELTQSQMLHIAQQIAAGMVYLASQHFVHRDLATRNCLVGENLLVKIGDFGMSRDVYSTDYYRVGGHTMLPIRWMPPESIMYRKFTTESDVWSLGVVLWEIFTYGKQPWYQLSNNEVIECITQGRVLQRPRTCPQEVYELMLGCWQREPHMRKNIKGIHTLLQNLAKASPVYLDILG

Sequence of Insulin-like growth factor 1 receptor (Homo sapiens) (P08069 31-736 limits assumed): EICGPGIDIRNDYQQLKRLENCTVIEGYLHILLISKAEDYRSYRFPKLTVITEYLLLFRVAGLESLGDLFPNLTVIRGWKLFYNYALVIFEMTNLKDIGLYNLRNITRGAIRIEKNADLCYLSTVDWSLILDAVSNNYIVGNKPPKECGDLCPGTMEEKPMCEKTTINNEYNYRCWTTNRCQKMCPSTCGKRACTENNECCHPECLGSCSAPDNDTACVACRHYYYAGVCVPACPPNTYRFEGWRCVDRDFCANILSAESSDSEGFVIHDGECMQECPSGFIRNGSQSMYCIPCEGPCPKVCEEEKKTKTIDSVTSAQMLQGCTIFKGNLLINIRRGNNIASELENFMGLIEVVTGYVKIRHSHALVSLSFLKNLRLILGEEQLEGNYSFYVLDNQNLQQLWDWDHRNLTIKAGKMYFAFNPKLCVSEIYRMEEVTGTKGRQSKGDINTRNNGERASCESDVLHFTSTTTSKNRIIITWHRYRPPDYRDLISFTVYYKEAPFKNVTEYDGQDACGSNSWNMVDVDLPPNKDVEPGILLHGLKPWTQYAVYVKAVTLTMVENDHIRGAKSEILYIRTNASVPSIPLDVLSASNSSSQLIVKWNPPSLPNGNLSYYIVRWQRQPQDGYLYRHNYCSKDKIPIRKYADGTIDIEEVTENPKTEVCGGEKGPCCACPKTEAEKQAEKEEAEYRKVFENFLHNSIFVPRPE
Sequence of Insulin-like growth factor 1 receptor (Homo sapiens) (P08069 741-1367 limits assumed): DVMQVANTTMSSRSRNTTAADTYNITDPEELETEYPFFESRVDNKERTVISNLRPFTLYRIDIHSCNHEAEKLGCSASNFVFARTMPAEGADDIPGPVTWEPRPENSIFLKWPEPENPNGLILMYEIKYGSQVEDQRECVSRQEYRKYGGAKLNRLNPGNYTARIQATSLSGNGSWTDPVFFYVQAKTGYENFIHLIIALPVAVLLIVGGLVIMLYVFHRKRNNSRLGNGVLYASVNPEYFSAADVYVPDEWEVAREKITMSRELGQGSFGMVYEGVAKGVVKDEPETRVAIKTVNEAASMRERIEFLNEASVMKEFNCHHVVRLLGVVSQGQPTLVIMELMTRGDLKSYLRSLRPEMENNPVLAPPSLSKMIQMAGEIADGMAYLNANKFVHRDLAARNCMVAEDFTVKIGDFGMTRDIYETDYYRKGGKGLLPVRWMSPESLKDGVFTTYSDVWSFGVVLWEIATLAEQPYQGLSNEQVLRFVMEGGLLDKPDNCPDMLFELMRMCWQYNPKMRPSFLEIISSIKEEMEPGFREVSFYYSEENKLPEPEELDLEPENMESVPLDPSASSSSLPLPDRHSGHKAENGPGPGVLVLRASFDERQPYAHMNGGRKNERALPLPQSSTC
Sequence of Focal adhesion kinase 1 (Homo sapiens) (Q05397 2-1052 limits assumed): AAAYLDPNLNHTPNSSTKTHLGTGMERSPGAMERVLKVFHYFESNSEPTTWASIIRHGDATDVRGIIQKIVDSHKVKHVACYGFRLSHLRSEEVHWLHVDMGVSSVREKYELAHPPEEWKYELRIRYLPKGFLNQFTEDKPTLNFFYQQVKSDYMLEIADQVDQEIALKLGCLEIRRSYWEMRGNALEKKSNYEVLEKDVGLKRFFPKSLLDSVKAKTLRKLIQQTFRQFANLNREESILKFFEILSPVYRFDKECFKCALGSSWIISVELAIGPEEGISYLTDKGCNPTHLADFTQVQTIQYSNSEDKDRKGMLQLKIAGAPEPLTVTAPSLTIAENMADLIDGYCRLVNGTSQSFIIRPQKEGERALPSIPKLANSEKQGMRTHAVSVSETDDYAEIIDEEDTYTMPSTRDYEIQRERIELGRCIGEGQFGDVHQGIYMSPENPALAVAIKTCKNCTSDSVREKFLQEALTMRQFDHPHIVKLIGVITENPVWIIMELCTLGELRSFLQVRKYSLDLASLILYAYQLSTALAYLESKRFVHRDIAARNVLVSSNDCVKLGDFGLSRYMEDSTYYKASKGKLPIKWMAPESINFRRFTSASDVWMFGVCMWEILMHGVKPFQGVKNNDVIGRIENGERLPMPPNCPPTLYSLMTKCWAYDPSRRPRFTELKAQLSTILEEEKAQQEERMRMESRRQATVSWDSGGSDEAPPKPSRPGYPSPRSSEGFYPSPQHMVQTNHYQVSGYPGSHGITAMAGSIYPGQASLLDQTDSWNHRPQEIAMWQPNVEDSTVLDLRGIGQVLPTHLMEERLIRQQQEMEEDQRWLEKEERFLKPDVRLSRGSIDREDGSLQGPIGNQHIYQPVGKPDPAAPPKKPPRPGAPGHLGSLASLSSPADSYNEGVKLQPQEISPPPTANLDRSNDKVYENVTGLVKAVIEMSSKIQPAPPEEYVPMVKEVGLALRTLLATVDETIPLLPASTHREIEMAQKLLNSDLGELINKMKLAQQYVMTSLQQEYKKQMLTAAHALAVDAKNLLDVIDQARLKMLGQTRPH
Sequence of Serine/threonine-protein kinase B-raf (Homo sapiens), P15056 [V600E] (P15056 whole entry V600E): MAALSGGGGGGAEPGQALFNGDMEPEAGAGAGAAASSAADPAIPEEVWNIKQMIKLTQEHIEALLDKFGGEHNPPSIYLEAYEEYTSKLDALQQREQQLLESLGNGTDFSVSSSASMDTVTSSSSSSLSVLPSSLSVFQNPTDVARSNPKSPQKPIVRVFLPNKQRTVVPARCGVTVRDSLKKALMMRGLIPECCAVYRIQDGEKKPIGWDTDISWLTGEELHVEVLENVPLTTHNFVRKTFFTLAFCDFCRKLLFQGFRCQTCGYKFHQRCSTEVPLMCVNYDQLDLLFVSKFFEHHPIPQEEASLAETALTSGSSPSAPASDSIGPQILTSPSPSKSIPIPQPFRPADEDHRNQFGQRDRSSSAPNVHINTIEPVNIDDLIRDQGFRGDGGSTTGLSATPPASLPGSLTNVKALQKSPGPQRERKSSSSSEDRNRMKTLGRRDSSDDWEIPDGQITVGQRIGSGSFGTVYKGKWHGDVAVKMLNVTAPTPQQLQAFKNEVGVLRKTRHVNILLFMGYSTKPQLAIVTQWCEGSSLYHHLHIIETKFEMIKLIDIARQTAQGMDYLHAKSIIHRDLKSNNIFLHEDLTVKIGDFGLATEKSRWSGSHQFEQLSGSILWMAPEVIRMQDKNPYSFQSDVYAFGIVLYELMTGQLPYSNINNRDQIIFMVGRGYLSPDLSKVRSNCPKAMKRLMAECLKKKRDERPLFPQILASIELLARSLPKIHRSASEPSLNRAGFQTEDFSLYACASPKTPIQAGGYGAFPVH
Sequence of RAC-alpha serine/threonine-protein kinase (Homo sapiens) (P31749 whole entry): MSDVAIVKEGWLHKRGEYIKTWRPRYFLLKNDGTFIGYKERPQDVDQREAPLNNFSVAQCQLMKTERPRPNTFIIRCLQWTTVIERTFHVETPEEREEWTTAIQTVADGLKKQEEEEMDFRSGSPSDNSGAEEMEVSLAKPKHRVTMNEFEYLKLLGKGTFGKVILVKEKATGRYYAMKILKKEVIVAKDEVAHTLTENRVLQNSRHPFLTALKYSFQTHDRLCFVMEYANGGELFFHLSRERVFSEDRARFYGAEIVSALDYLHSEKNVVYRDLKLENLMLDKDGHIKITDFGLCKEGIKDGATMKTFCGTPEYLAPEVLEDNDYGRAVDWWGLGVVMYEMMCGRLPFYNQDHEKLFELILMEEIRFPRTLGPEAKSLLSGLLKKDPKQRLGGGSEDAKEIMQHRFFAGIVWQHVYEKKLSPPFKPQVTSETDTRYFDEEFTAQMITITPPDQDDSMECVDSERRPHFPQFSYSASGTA
Sequence of Aurora kinase B (Homo sapiens) (Q96GD4 whole entry): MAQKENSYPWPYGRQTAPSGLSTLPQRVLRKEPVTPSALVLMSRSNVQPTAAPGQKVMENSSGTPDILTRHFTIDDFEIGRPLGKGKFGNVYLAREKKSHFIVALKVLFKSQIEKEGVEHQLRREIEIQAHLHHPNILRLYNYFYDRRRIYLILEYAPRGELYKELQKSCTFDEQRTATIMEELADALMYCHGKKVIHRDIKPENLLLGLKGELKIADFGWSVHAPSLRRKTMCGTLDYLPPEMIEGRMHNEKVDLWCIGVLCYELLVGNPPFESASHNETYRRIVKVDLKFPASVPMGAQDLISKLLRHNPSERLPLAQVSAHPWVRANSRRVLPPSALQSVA

Compound `O=C1c2ccc(Oc3ccc(F)cc3F)cc2CCc2ccc(OC[C@@H](O)CO)cc21` has an IC50 [1] of 40 nM and an IC50 [2] of 6700 nM.

In the case of `O=C1c2ccc(Nc3ccc(F)cc3F)cc2CCc2c(OC[C@H](O)CO)cccc21`, the inhibition [3] is reported as “inactive”, the inhibition [4] is reported as “inactive” and the inhibition [5] is reported as “inactive”. For the same compound, the IC50 [1] was 20 nM, the inhibition [6] was “inactive” and the inhibition [7] was “inactive”. The IC50 [2] was 100000 nM, the inhibition [8] was “inactive” and the inhibition [9] was “inactive”. The inhibition [10] was “inactive”, the inhibition [11] was “inactive” and the inhibition [12] was “inactive”. The inhibition [13] was “inactive”, the inhibition [14] was “inactive” and the inhibition [15] was “inactive”. For the same compound, the inhibition [16] was “inactive”, the inhibition [17] was “inactive” and the inhibition [18] was “inactive”.

For `COc1ccc2c(c1)C(=O)c1ccc(Nc3ccccc3C(F)(F)F)cc1CC2`, the inhibition [3] was “inactive”, the inhibition [4] was “inactive” and the inhibition [5] was “inactive”. The IC50 [1] was 400 nM, the inhibition [6] was “inactive” and the inhibition [7] was “inactive”. The IC50 [2] was 33600 nM, the inhibition [8] was “inactive” and the inhibition [9] was “inactive”. The inhibition [10] was “inactive”, the inhibition [11] was “inactive” and the inhibition [12] was “inactive”. For the same compound, the inhibition [13] was “inactive”, the inhibition [14] was “inactive” and the inhibition [15] was “inactive”. For the same compound, the inhibition [16] was “inactive”, the inhibition [17] was “inactive” and the inhibition [18] was “inactive”.

`Nc1ccccc1Nc1ccc2c(c1)CCc1ccc(OC[C@@H](O)CO)cc1C2=O` was tested, and the IC50 [1] was 8 nM and the IC50 [2] was 170 nM.

`O=C1c2ccc(Nc3ccc(F)cc3F)cc2CCc2cc(OCCO)ccc21` was tested, and the IC50 [1] was 20 nM and the IC50 [2] was 4700 nM.

`COc1ccc2c(c1)C(=O)c1ccc(Nc3ccccc3Cl)cc1CC2` was tested, and the inhibition [3] was “inactive”, the inhibition [4] was “inactive” and the inhibition [5] was “inactive”. For the same compound, the IC50 [1] was 560 nM, the inhibition [6] was “inactive” and the inhibition [7] was “inactive”. The IC50 [2] was 4600 nM, the inhibition [8] was “inactive” and the inhibition [9] was “inactive”. The inhibition [10] was “inactive”, the inhibition [11] was “inactive” and the inhibition [12] was “inactive”. For the same compound, the inhibition [13] was “inactive”, the inhibition [14] was “inactive” and the inhibition [15] was “inactive”. The inhibition [16] was “inactive”, the inhibition [17] was “inactive” and the inhibition [18] was “inactive”.

In the case of `CC1(C)OC[C@H](COc2ccc3c(c2)C(=O)c2ccc(Nc4ccc(F)cc4F)cc2CC3)O1`, the inhibition [3] is reported as “inactive”, the inhibition [4] is reported as “inactive” and the inhibition [5] is reported as “inactive”. For the same compound, the IC50 [1] was 20 nM, the inhibition [6] was “inactive” and the inhibition [7] was “inactive”. For the same compound, the IC50 [2] was 230 nM, the inhibition [8] was “inactive” and the inhibition [9] was “inactive”. For the same compound, the inhibition [10] was “inactive”, the inhibition [11] was “inactive” and the inhibition [12] was “inactive”. The inhibition [13] was “inactive”, the inhibition [14] was “inactive” and the inhibition [15] was “inactive”. The inhibition [16] was “inactive”, the inhibition [17] was “inactive” and the inhibition [18] was “inactive”.

`O=C1c2ccc(Nc3ccc(F)cc3F)cc2CCc2ccc(OCC[C@@H](O)CO)cc21` was tested, and the IC50 [1] was 10 nM and the IC50 [2] was 80 nM.

Compound `O=C1c2ccc(Nc3ccc(F)cc3F)cc2CCc2ccc(O)cc21` has an IC50 [1] of 20 nM and an IC50 [2] of 700 nM.

`O=C1c2ccc(Nc3ccc(F)cc3F)cc2CCc2cc(OCCCO)ccc21` gave an IC50 [1] of 30 nM and an IC50 [2] of 19500 nM.

In the case of `COc1ccc2c(c1)C(=O)c1ccc(Oc3ccc(F)cc3F)cc1CC2`, the IC50 [1] is reported as 100 nM.

`COc1ccc2c(c1)C(=O)c1ccc(Nc3ccc(F)cc3N)cc1CC2` was tested, and the IC50 [1] was 40 nM and the IC50 [2] was 1900 nM.

`COc1ccc2c(c1)C(=O)c1ccc(Nc3ccccc3)cc1CC2` showed an IC50 [1] of 70 nM and an IC50 [2] of 3200 nM.

For `O=C1c2ccc(Nc3ccc(F)cc3F)cc2CCc2ccc(OC[C@@H](O)CO)cc21`, the inhibition [3] was “inactive”, the inhibition [4] was “inactive” and the inhibition [5] was “inactive”. For the same compound, the inhibition [6] was “inactive”, the inhibition [7] was “inactive” and the inhibition [8] was “inactive”. For the same compound, the inhibition [9] was “inactive”, the inhibition [10] was “inactive” and the inhibition [11] was “inactive”. For the same compound, the inhibition [12] was “inactive”, the inhibition [13] was “inactive” and the inhibition [14] was “inactive”. The inhibition [15] was “inactive”, the inhibition [16] was “inactive” and the inhibition [17] was “inactive”. For the same compound, the inhibition [18] was “inactive”.

In the case of `O=C1c2ccc(Nc3ccc(F)cc3F)cc2CCc2ccc(OCCN3CCOCC3)cc21`, the IC50 [1] is reported as 10 nM and the IC50 [2] is reported as 80 nM.

Compound `CC1(C)OC[C@@H](COc2ccc3c(c2)C(=O)c2ccc(Nc4ccc(F)cc4F)cc2CC3)O1` has an IC50 [1] of 40 nM and an IC50 [2] of 230 nM.

In the case of `O=C1c2ccc(Nc3ccccc3Cl)cc2CCc2ccc(O)cc21`, the IC50 [1] is reported as 140 nM and the IC50 [2] is reported as 7500 nM.

Work on `O=c1c2ccc(Nc3ccc(F)cc3F)cc2ccc2ccc(O)cc12` yielded an IC50 [1] of 300 nM and an IC50 [2] of 26700 nM.

`O=C1c2ccc(Nc3ccc(F)cc3F)cc2CCc2cc(OCCN3CCOCC3)ccc21` gave an IC50 [1] of 20 nM and an IC50 [2] of 40000 nM.

Work on `Nc1ccccc1Nc1ccc2c(c1)CCc1cc(OC[C@H](O)CO)ccc1C2=O` yielded an IC50 [1] of 30 nM and an IC50 [2] of 6000 nM.

In the case of `O=C1c2ccc(Nc3ccccc3)cc2CCc2ccc(O)cc21`, the IC50 [1] is reported as 60 nM and the IC50 [2] is reported as 2200 nM.

`CC1(C)OC[C@H](COc2ccc3c(c2)CCc2cc(Nc4ccccc4N)ccc2C3=O)O1` showed an IC50 [1] of 80 nM and an IC50 [2] of 93600 nM.

`O=C1c2ccc(Nc3ccc(F)cc3Cl)cc2CCc2ccc(O)cc21` showed an IC50 [1] of 560 nM and an IC50 [2] of 3800 nM.

`COc1ccc2c(c1)CCc1cc(Nc3ccccc3N)ccc1C2=O` showed an IC50 [1] of 70 nM and an IC50 [2] of 12300 nM.

`CC1(C)OC[C@@H](COc2ccc3c(c2)C(=O)c2ccc(Nc4ccccc4N)cc2CC3)O1` gave an IC50 [1] of 60 nM and an IC50 [2] of 190 nM.

Compound `COc1ccc2c(c1)C(=O)c1ccc(Nc3ccccc3OC)cc1CC2` has an IC50 [1] of 380 nM and an IC50 [2] of 7600 nM.

`COc1ccc2c(c1)C(=O)c1ccc(Nc3ccccc3F)cc1CC2` showed an IC50 [1] of 70 nM and an IC50 [2] of 4900 nM.

`COc1ccc2c(c1)C(=O)c1ccc(Nc3ccc(F)cc3F)cc1CC2` showed an IC50 [1] of 20 nM and an IC50 [2] of 1200 nM.

In the case of `COc1ccc2c(c1)C(=O)c1ccc(Nc3ccc(F)c(F)c3F)cc1CC2`, the IC50 [1] is reported as 3530 nM and the IC50 [2] is reported as 81000 nM.

Compound `COc1ccc2c(c1)CCc1cc(Nc3ccc(F)cc3F)ccc1C2=O` has an IC50 [1] of 20 nM and an IC50 [2] of 10200 nM.

Work on `COc1ccc2c(c1)C(=O)c1ccc(Nc3ccccc3N)cc1CC2` yielded an IC50 [1] of 40 nM and an IC50 [2] of 1500 nM.

`O=C1c2ccc(Oc3ccc(F)cc3F)cc2CCc2ccc(OCCN3CCOCC3)cc21` showed an IC50 [1] of 80 nM and an IC50 [2] of 4500 nM.
